Test system: WT FMDV StopGo expressing construct in HEK-293 cells
Assay type: cell-based, human

Compound | effect on the Renilla/firefly ratio of the WT StopGo expressing construct
COc1ccc(C[C@H]2NC[C@H](O)[C@H]2OC(C)=O)cc1 [anisomycin] | do not affect StopGo
CC[C@H]1OC(=O)[C@H](C)[C@@H](O[C@H]2C[C@@](C)(OC)[C@@H](O)[C@H](C)O2)[C@H](C)[C@@H](O[C@@H]2O[C@H](C)C[C@H](N(C)C)[C@H]2O)[C@](C)(O)C[C@@H](C)CN(C)[C@H](C)[C@@H](O)[C@]1(C)O [azithromycin] | do not affect StopGo
CC[C@H]1OC(=O)[C@H](C)[C@@H](O[C@H]2C[C@@](C)(OC)[C@@H](O)[C@H](C)O2)[C@H](C)[C@@H](O[C@@H]2O[C@H](C)C[C@H](N(C)C)[C@H]2O)[C@](C)(OC)C[C@@H](C)C(=O)[C@H](C)[C@@H](O)[C@]1(C)O [clarithromycin] | do not affect StopGo
CCC[C@@H]1C[C@@H](C(=O)N[C@@H]([C@H]2O[C@H](SC)[C@H](O)[C@@H](O)[C@H]2O)[C@H](C)Cl)N(C)C1 [clindomygin] | do not affect StopGo
C[C@H]1O[C@H](O[C@H]2[C@H](O)[C@@H](O)[C@@H](O)[C@H](O)[C@@H]2O)[C@@H](N)C[C@@H]1NC(=N)C(=O)O [kasugamycin] | do not affect StopGo
CCC[C@@H]1C[C@@H](C(=O)N[C@@H]([C@H]2O[C@H](SC)[C@H](O)[C@@H](O)[C@H]2O)[C@@H](C)O)N(C)C1 [lincomycin] | do not affect StopGo
C=C[C@]1(C)C[C@@H](OC(=O)CSCCN(CC)CC)[C@]2(C)[C@H](C)CC[C@]3(CCC(=O)[C@H]32)[C@@H](C)[C@@H]1O [tiamulin] | do not affect StopGo
CO[C@H]1C[C@H](O[C@H]2[C@H](C)[C@@H](O[C@@H]3O[C@H](C)C[C@H](N(C)C)[C@H]3OC(C)=O)[C@@H](C)C[C@@]3(CO3)C(=O)[C@H](C)[C@@H](OC(C)=O)[C@@H](C)[C@@H](C)OC(=O)[C@@H]2C)O[C@@H](C)[C@@H]1OC(C)=O [troleandomycin] | do not affect StopGo
CC[C@H]1OC(=O)C[C@@H](O)[C@H](C)[C@@H](O[C@@H]2O[C@H](C)[C@@H](O[C@H]3C[C@@](C)(O)[C@@H](O)[C@H](C)O3)[C@H](N(C)C)[C@H]2O)[C@@H](CC=O)C[C@@H](C)C(=O)/C=C/C(C)=C/[C@@H]1CO[C@@H]1O[C@H](C)[C@@H](O)[C@@H](OC)[C@H]1OC [tylosin] | do not affect StopGo
C=C[C@]1(C)C[C@@H](OC(=O)CSC(C)(C)CNC(=O)[C@H](N)C(C)C)[C@]2(C)[C@H](C)CC[C@]3(CCC(=O)[C@H]32)[C@@H](C)[C@@H]1O [valnemulin] | do not affect StopGo
capromycin | do not affect StopGo
gentamycin | do not affect StopGo
